# Assay: Dielectric measurement (e′, e″, Q value) by Slotted Line Method at 27 MHz
# Format: physicochemical
# Details: raw material
# Description: The property of permittivity is the measure of the resistance to forming an electric field. For purposes of comparing materials in air, it is often convenient to describe the permittivity of material in air where the permittivity is more specifically called “relative permittivity” or ? r. This is a complex number represented by the following equation: ? r=e'-je'' where e' (the real portion of the complex number) is the dielectric constant (energy storage) and e'' (the imaginary portion of the complex number) is the dielectric loss or dissipation factor (energy dissipated as heat). The ratio of dielectric loss (e'') over the dielectric constant (e') is called the loss tangent (tan δ) or power factor. […] The Q value is affected by physical and chemical properties such as density (porosity/particle size), moisture (conductivity), temperature, and molecular polarizability. The measurements obtained by this method can eliminate the need to measure and evaluate these properties independently. […] The Q values were measured using a HP […] Slotted Line as sample holder (carriage removed) connected to Agilent […] to ports A and B (transmission mode). […] This process is referred to as the “Slotted Line Method.” Unless otherwise stated, the Slotted line method was used for the calculation of e', e'', and Q value herein with the frequency range set to 26-28 MHz (31 points resolution) and values of e' and e'' were recorded from the 27 MHz data point.
compound,measurement,value
"OC[C@@H](O)[C@@H](O[C@H]1O[C@H](CO)[C@@H](O)[C@H](O)[C@H]1O)[C@H](O)[C@@H](O)CO [Maltitol (SweetPearl DC300), Maltitol]",Loss Tangent,0.0022
same,e′,1.6214
same,e″,0.0035
